# US9745280B2, “Compound or pharmaceutically acceptable salt thereof, and pharmaceutical composition containing same as active ingredient” (SNU R&DB FOUNDATION, priority 2012, dated 2017)
# What was measured:
# [1] = tested on: H1299 NSCLC (non-small cell lung cancer) cells; assay: Cancer cell growth inhibition (MTS); format: cell-based; conditions: Homo sapiens
# Procedure: To investigate the inhibitory effect of the compounds of Examples of the present invention on cancer cell growth, the following experiment was performed. Particularly, H1299 NSCLC (non-small cell lung cancer) cells were distributed in a 96-well plate at the density of 5×10^3 cells/well, followed by culture in a 37° C., 5% CO2 incubator for 24 hours. The compound of each example was dissolved in DMSO (10 nM, 100 nM, 1 μM, 10 μM), which was treated to each well. 48 hours later, cell growth was measured by using MTS reagent (3-(4,5-dimethylthiazole-2-yl)-5-(3-carboxymethoxyphenyl)-2-(4-sulfophenyl)-2H-tetrazolium). The experiment was performed in triplicate and the standard error of the analysis result was corrected.
# [2] = tested on: human umbilical vein endothelial cells (HUVECs); assay: Vascular endothelial cell proliferation, [3H]-thymidine incorporation, conditioned media of hypoxic HCT116; format: cell-based; conditions: conditioned media of HCT116 treated at 1˜100 nM under hypoxia; HUVECs 18 hours
# Procedure: (§1) First, HCT116, the human colorectal cancer cell line, was cultured in a hypoxic chamber (1% O2) as the in vitro hypoxic model. The cells were treated with deguelin, compound 69 (Example 33) and compound 54 (Example 28) at the concentrations of 1˜100 nM, followed by culture for 8 hours. Next, the culture fluid was collected and proceeded to centrifugation at 4° C. for 10 minutes (6,000×g). Cell culture fluid was obtained from the supernatant (conditioned media (CM)). The obtained cell culture fluid was treated to human umbilical vein endothelial cells (HUVECs) which were cultured separately. Then changes of angiogenesis were investigated by the following experiments.
# The cell culture fluid prepared in the above preparation stage was treated to umbilical vein endothelial cells (HUVECs) for 18 hours. Cell proliferation was confirmed by [^3H]-thymidine incorporation assay.
# HIF-1α = HIF-1α inhibitory activity, hypoxia-response element-luciferase in HRE-A549 cells; format: cell-based; conditions: HRE-A549 cells, hypoxia-chamber 24 h, luciferase activity
# Procedure: HRE-A549 cells stably transfected with hypoxia-response element-luciferase construct were incubated in Dulbecco's modified Eagle's medium. Following overnight serum deprivation, the cells were treated with or without Deguelin or example compounds. After 1 h incubation, the cells were incubated in hypoxia-chamber for 24 h at 37° C. Luciferase activity was measured by adding luciferase assay reagent (Promega, Madison, Wis.).
# [3] = tested on: lung cancer cells with or without anticancer drug resistance; assay: Anchorage-dependent colony formation assay; format: cell-based; conditions: increasing concentrations, 2 weeks
# From the text: (§2) H1299, H460, H292, and BEAS-2B cells were purchased from the ATCC. The other NSCLC cells were kindly provided by Dr. John V. Heymach (MD Anderson Cancer Center, Houston, Tex.). HUVECs were purchased from Invitrogen. Human bronchial epithelial (HBE) cells were kindly provided by Dr. John Minna (The University of Texas Southwestern Medical Center, Dallas, Tex.). Human retinal pigment epithelial (RPE) cells were kindly provided by Dr. Jeong Hun Kim (College of Medicine, Seoul National University, Seoul, Republic of Korea). HT-22 cells were provided by Dr. Dong Gyu Jo (College of Pharmacy, Sungkyunkwan University, Suwon, Republic of Korea). Cell lines were authenticated and validated at the Korean Cell Line Bank using AmplFLSTR identifier PCR Amplification Kit (Applied Biosystems; cat. No. 4322288) in 2013. Cells passed for fewer than 6 months after receipt or resuscitation of validated cells were used in this study.
# HT-22 and RPE cells were cultured in DMEM supplemented with 10% fetal bovine serum (FBS) and antibiotics. Other cancer cells were cultured in RPMI 1640 medium supplemented with 10% FBS and antibiotics. […]
# For the anchorage-dependent colony formation assay, cells were seeded onto 6-well plates at a density of 300 cells/well and then treated with increasing concentrations of example 28 compound (“SH” in FIG. 11) for 2 weeks. […] The colonies were photographed and counted.
# [4] = tested on: lung cancer cells with or without anticancer drug resistance; assay: Anchorage-independent (soft agar) colony formation assay; format: cell-based; conditions: 2 weeks
# From the text: as §2
# HT-22 and RPE cells were cultured in DMEM supplemented with 10% fetal bovine serum (FBS) and antibiotics. […]
# For the anchorage-independent colony formation assay, the cells were mixed with sterile 1% agar solution (final concentration of 0.4%) and then poured onto 1% base agar in 24-well plates. […] After incubation, the colonies were stained with MTT solution and then photographed and counted.
# HUVECs = assay: HUVEC tube formation with conditioned medium from treated H1299 cells; format: cell-based; conditions: CM from H1299 cells treated under normoxic or hypoxic conditions
# Procedure: H1299 cells were treated with example 28 compound (“SH” in FIG. 13) or deguelin for 1 d and then further incubated under normoxic or hypoxic conditions for 4 h. After incubation, the drug-containing medium was discarded and fresh serum-free medium was added to cell and further incubated for 24 h. After incubation, the conditioned medium (CM) was collected.
# Briefly, the HUVECs were diluted in complete medium and seeded onto CellBIND surface 96-well plates (Corning). The cells were treated with the CM. The morphological changes of the HUVECs were photographed and scored.
# [5] = tested on: hippocampal cells (HT-22); format: cell-based
# From the text: (§3) We examined toxicity of example 28 compound at the cellular levels by testing the effects of example 28 compound on the viability of several normal cells, including human normal lung epithelial cells (HBE and BEAS-2B; FIG. 14), hippocampal cells (HT-22; FIG. 15), retinal pigment epithelial cells (FIG. 16), and vascular endothelial cells (HUVEC; FIG. 17).
# [6] = tested on: human normal lung epithelial cells (HBE and BEAS-2B); format: cell-based
# From the text: as §3
# [7] = tested on: vascular endothelial cells (HUVEC); format: cell-based
# From the text: as §3
# [8] = tested on: retinal pigment epithelial cells; format: cell-based, human
# From the text: as §3
# [9] = Body weight of treated rats; format: in vivo
# [10] = tested on: human umbilical vein endothelial cells (HUVECs); assay: Vascular endothelial cell migration, trans-well, conditioned media of hypoxic HCT116; format: cell-based; conditions: cell culture fluid treated at 100 nM; 4 hours
# Procedure: as §1
# The cell culture fluid obtained in the above preparation stage was loaded in the lower chamber of trans-well plate (6.5 mm diameter filter) and umbilical vein endothelial cells (HUVECs) were plated carefully in the upper chamber, followed by culture at 37° C. for 4 hours. The cells migrated down the filter were confirmed by H&E staining.
# [11] = tested on: human umbilical vein endothelial cells (HUVECs); assay: Vascular endothelial cell tube formation, conditioned media of hypoxic HCT116; format: cell-based; conditions: conditioned media of treated HCT116; 30 hours
# Procedure: as §1
# Umbilical vein endothelial cells (HUVECs) were treated with the cell culture fluid obtained in the above preparation stage. 30 hours later, tube formation was observed. As a result, tube formation was induced by the control deguelin and the compounds of the present invention.
# [12] = tested on: human bronchial epithelial cells (HBEC-1 and BEAS-2B); assay: Cytotoxicity to normal cells (MTT); format: cell-based; conditions: 3 days
# Procedure: To investigate the cytotoxicity of the control deguelin, the compound 69 (Example 33), and the compound 54 (Example 28) to the normal cells, it was examined how these compounds affect the proliferation of human bronchial epithelial cells (HBEC-1 and BEAS-2B).
# Particularly, HBEC-1 and BEAS-2B cells were seeded on a 96-well culture plate (5,000 cells/well), followed by culture for 24 hours. The plate was treated with 0.1% DMSO (comparative control (CT)), 1 μM of deguelin (control), or […] of the compound 69 (Example 33) and the compound 54 (Example 28) (experimental group), followed by further culture for 3 days. Cytotoxicity was evaluated by MTT assay.
# [13] = previous study; decreased tyrosine hydroxylase immunoreactivity; cited from earlier work
smiles,measurement,setting,value
"COc1ccc(CC(=O)c2ccc3c(c2OC)C=CC(C)(C)O3)cc1OC [Example 28, 2-(3,4-Dimethoxyphenyl)-1-(5-methoxy-2,2-dimethyl-2H-chromen-6-yl)ethanone]",IC50,"[1]; NCI-H1299, 48 hours, MTS reagent",140 nM
same,proliferation of vascular endothelial cells,[2],inhibited the proliferation of vascular endothelial cells dose-dependently
same,IC50,HIF-1α,2150 nM
same,anchorage-dependent colony formation,[3],remarkably superior anticancer effect
same,anchorage-independent colony formation,[4],remarkably superior anticancer effect
same,tube formation of HUVECs,HUVECs,formed significantly fewer tubes
same,cytotoxicity compared with deguelin,[5],significantly reduced cytotoxicity
same,cytotoxicity compared with deguelin,[6],significantly reduced cytotoxicity
same,cytotoxicity compared with deguelin,[7],significantly reduced cytotoxicity
same,cytotoxicity compared with deguelin,[8],significantly reduced cytotoxicity
same,body weight of rats,"[9]; rat, in vivo",minimal influence on the body weight of rats
"COc1ccc(CC(=O)c2ccc3c(c2OC)C=CC(C)(C)O3)cc1OC [compound 54, 2-(3,4-Dimethoxyphenyl)-1-(5-methoxy-2,2-dimethyl-2H-chromen-6-yl)ethanone]",IC50,"[1]; NCI-H1299, value repeated in text",140 nM
same,migration of vascular endothelial cells,[10],showed the inhibitory effect on the migration of vascular endothelial cells
same,inhibitory effect on tube formation,[11],greater than that of the control deguelin
same,cell survival rate,"[12]; human, 1 μM",approximately 80%
"COc1ccc([C@H](C)C(=O)c2ccc3c(c2OC)C=CC(C)(C)O3)cc1OC [compound 69, (S)-2-(3,4-Dimethoxyphenyl)-1-(5-methoxy-2,2-dimethyl-2H-chromen-6-yl)propan-1-one]",proliferation of vascular endothelial cells,[2],inhibited the proliferation of vascular endothelial cells dose-dependently
same,migration of vascular endothelial cells,[10],showed the inhibitory effect on the migration of vascular endothelial cells
same,inhibitory effect on tube formation,[11],greater than that of the control deguelin
same,cell survival rate,"[12]; human, 1 μM",approximately 80%
"COc1cc2c(cc1OC)[C@@H]1C(=O)c3ccc4c(c3O[C@@H]1CO2)C=CC(C)(C)O4 [deguelin, Deguelin, reference compound]",cell survival rate,"[12]; HBEC-1 and BEAS-2B, 1 μM of deguelin, MTT",approximately 60%
same,body weight of rats,[9]; compared with control,significantly reduced
same,toxicity in the rat brain,[13],caused parkinsonism-like syndrome
